Source: US20090221655A1, “ANTIBACTERIAL AGENTS” (Pitzer, Inc., priority 2006, published 2009)
Values after ≈ are worked out from the molar mass of the structure shown.

Tests used:
Format in all cases: cell-based
E. faecalis MGH-2 EF 1-1 = assay: in vitro antibacterial activity (MIC), E. faecalis; conditions: Enterococcus faecalis, MGH2EF11; strain MGH-2 EF 1-1; MIC = lowest concentration preventing macroscopically visible growth; read-out: in vitro antibacterial activity MIC5 E. faecalis MGH-2 EF 1-1
From the text: (§1) The in vitro antibacterial activity of the compounds of the present invention may be assessed by following procedures recommended in (1) National Committee for Clinical Laboratory Standards (January 2003), Methods for dilution antimicrobial tests for bacteria that grow aerobically, Approved Standard (6th ed), M7-A6, NCCLS, Wayne, Pa.; (2) National Committee for Clinical Laboratory Standards (March 2001), Methods for antimicrobial susceptibility testing of anaerobic bacteria, Approved Standard (5th ed), M11-A4, NCCLS, Wayne, Pa.; (3) National Committee for Clinical Laboratory Standards (Jan. 2003), MIC testing supplemental tables, M100-S13 (for use with M7-A6), NCCLS, Wayne, Pa.; and (4) Murray P R, Baron E J, Jorgensen J H, et al. Manual of Clinical Microbiology (8th ed) Washington, D.C.: American Society for Microbiology Press, 2003. The antibacterial activity can be presented in the form of MIC value. The MIC value is the lowest concentration of drug, which prevented macroscopically visible growth under the conditions of the test.

S. pneumoniae SV1 SP-3 = assay: in vitro antibacterial activity (MIC), S. pneumoniae; conditions: Streptococcus pneumoniae, SV1SP3; strain SV1 SP-3; MIC = lowest concentration preventing macroscopically visible growth; read-out: in vitro antibacterial activity MIC5 S. pneumoniae SV1 SP-3
From the text: as §1

S. aureus UC-76 SA-1 = assay: in vitro antibacterial activity (MIC), S. aureus; conditions: Staphylococcus aureus, UC76; strain UC-76 SA-1; MIC = lowest concentration preventing macroscopically visible growth; read-out: in vitro antibacterial activity MIC5 S. aureus UC-76 SA-1
From the text: as §1

SMILES	MIC (E. faecalis MGH-2 EF 1-1) [µg/mL]	MIC (S. pneumoniae SV1 SP-3) [µg/mL]	MIC (S. aureus UC-76 SA-1) [µg/mL]
CCC(=O)NC[C@H]1CN(c2ccc3c(C)noc3c2)C(=O)O1 [Example 2, (S)—N-[3-(3-methyl-benzo[d]isoxazol-6-yl)-2-oxo-oxazolidin-5-ylmethyl]-propionamide]	4 (≈ 13.2 µM)	2 (≈ 6.59 µM)	2 (≈ 6.59 µM)
Cc1noc2cc(N3C[C@H](Cn4ccnn4)OC3=O)ccc12 [Example 4, (R)-3-(3-methyl-benzo[d]isoxazol-6-yl)-5-[1,2,3]triazol-1-ylmethyl-oxazolidin-2-one]	4 (≈ 13.4 µM)	2 (≈ 6.68 µM)	4 (≈ 13.4 µM)
CNC(=O)[C@H]1CN(c2ccc3c(C)noc3c2)C(=O)O1 [Example 7, (R)-3-(3-methyl-benzo[d]isoxazol-6-yl)-2-oxo-oxazolidine-5-carboxylic acid methylamide]	4 (≈ 14.5 µM)	4 (≈ 14.5 µM)	4 (≈ 14.5 µM)
CONC(=O)[C@H]1CN(c2ccc3c(C)noc3c2)C(=O)O1 [Example 8, (R)-3-(3-methyl-benzo[d]isoxazol-6-yl)-2-oxo-oxazolidine-5-carboxylic acid methoxy-amide]	4 (≈ 13.7 µM)	8 (≈ 27.5 µM)	4 (≈ 13.7 µM)
CCONC(=O)[C@H]1CN(c2ccc3c(C)noc3c2)C(=O)O1 [Example 9, (R)-3-(3-methyl-benzo[d]isoxazol-6-yl)-2-oxo-oxazolidine-5-carboxylic acid ethoxy-amide]	4 (≈ 13.1 µM)	8 (≈ 26.2 µM)	4 (≈ 13.1 µM)

Next, values leading:

MIC (E. faecalis MGH-2 EF 1-1) [µg/mL]	MIC (S. pneumoniae SV1 SP-3) [µg/mL]	MIC (S. aureus UC-76 SA-1) [µg/mL]	SMILES
2 (≈ 6.91 µM)	1 (≈ 3.46 µM)	2 (≈ 6.91 µM)	CC(=O)NC[C@H]1CN(c2ccc3c(C)noc3c2)C(=O)O1 [Example 1, (S)—N-[3-(3-methyl-benzo[d]isoxazol-6-yl)-2-oxo-oxazolidin-5-ylmethyl]-acetamide]
4 (≈ 13.1 µM)	2 (≈ 6.55 µM)	4 (≈ 13.1 µM)	COC(=O)NC[C@H]1CN(c2ccc3c(C)noc3c2)C(=O)O1 [Example 3, (S)-[3-(3-methyl-benzo[d]isoxazol-6-yl)-2-oxo-oxazolidin-5-ylmethyl]-carbamic acid methyl ester]
8 (≈ 30.6 µM)	4 (≈ 15.3 µM)	4 (≈ 15.3 µM)	Cc1noc2cc(N3C[C@H](C(N)=O)OC3=O)ccc12 [Example 6, (R)-3-(3-methyl-benzo[d]isoxazol-6-yl)-2-oxo-oxazolidine-5-carboxylic acid amide]
